Experimental data published in patent US20050158435A1, “Process for producing sdg and foods and drinks containing the same” (Suntory Limited, priority 2002, published 2005).

Experiments:
Type in all cases: in vivo, rat
[1] = system: ovariectomized rats; assay: Uterine weight in ovariectomized rats
Description: (§1) Wistar-strain female rats (Charles River Japan, Inc.) were used, among which 41 animals were ovariectomized at 6 weeks of age and 9 animals were sham-operated at the same age, and raised on not-purified chow (CE 2; Clea Japan). After a week, the ovariectomized rats were divided into […]. The sham-operated non-ovariectomized group […] was used as a positive control.
(§2) Group I and group V and non-ovariectomized group had free access for 4 weeks to a basic diet consisting of AIN-93M Mix purified diet without Ca (Oriental Yeast Co., Ltd.). Group II, group III and group IV were fed with the basic diet supplemented with 0.1% each of soybean isoflavone, SDG (composition 4), and a combination of soybean isoflavone and SDG, respectively. Group V was treated with 17β estradiol at 1 μg/day by subcutaneous administration through the period of ingesting the test diet. During the raising period, the temperature at the tail skin of the rat was measured with a precision thermometer BAT-12R (Physitemp).
At the end of the studies in Example 7, the rats were autopsied and measured for uterine weight.

[2] = system: ovariectomized rats; assay: Antiobesity effect: body weight changes in ovariectomized rats; conditions: forced oral administration once a day for 14 days after ovariectomy (FIG. 2)
Description: Female Wister-strain rats at 7 weeks of age were ovariectomized and treated with each sample once a day by forced oral administration using a metal gastric tube for 14 days after surgery. Each group consisted of 8 animals (n=8). The animals were weighed to evaluate the effect on obesity due to increased appetite after the menopause. The samples used were 17β estradiol as a positive control and genistein as a reference sample, which is a major compound of soybean isoflavone. The SDG sample was composition 4.

[3] = system: ovariectomized rats; assay: Blood triglyceride levels in ovariectomized rats; conditions: 0.1% in diet, 4 weeks
Description: (§3) It is known that after the menopause bone mass decreases through the activation of osteoclasts due to estrogen decline and causes osteoporotic symptoms. Estrogen decline may disturb the balance of lipid metabolism to cause symptoms such as hyperlipidemia and hypercholesterolemia. Ovariectomized female rats are commonly used as model animals of menopausal symptoms because ovariectomy induces the above symptoms due to the decline of estrogen levels. […] Wistar-strain female rats (Charles River Japan, Inc.) were used, among which 34 animals were ovariectomized (OVX) at 6 weeks of age and 9 animals were sham-operated (Sham) at the same age, and raised on not-purified chow (CE 2; Clea Japan). After 2 weeks, the ovariectomized rats were divided into 4 groups (n=8-9) called groups I to IV. The sham-operated non-ovariectomized group (group V, n=9) was used as a positive control. Group I and group V were free access for 4 weeks to a basic diet consisting of AIN-93M Mix purified diet without Ca (Oriental Yeast Co., Ltd.). […] On the end date of raising the rats, they were weighed and then anatomized to collect blood and dissect the right femur. Evaluation of lipid metabolism-improving effect: Plasma was isolated from rat blood and assayed for triglyceride by an automatic analyzer (Hitachi).

[4] = system: ovariectomized rats; assay: Bone mass (femoral dry weight) in ovariectomized rats; conditions: 4 weeks
Description: as §3, with “After adherent tissues were removed, the femur dissected from the rat's right leg” for “Evaluation of lipid metabolism-improving effect: Plasma”, “dried at 100° C. for 24 hours” for “isolated from rat blood”, “weighed.” for “assayed for triglyceride by an automatic analyzer (Hitachi).”

[5] = system: ovariectomized rats; assay: Hot flashes model: temperature at the tail skin of ovariectomized rats; conditions: 0.1% in diet, 4 weeks (FIG. 3)
Protocol: A sharp decline of estrogen levels after the menopause invites hormone imbalance and autonomic failure to cause vasomotor disturbance-like symptoms such as hot flashes. In experimental animals, ovariectomy of female rats induces a rise in the temperature at the tail skin and symptoms corresponding to hot flashes among menopausal symptoms. The temperature at the tail skin was measured in ovariectomized rats treated with SDG and soybean isoflavone.
as §1
as §2, with “Group V was treated with 17β estradiol at 1 μg/day by subcutaneous administration through the period of ingesting the test diet.” left out

C[C@]12CC[C@@H]3c4ccc(O)cc4CC[C@H]3[C@@H]1CC[C@@H]2O [17β estradiol]
Uterine weight ([1]; 1 μg/day subcutaneous administration, ***P < 0.001 vs. group I): 443.9 ± 28.8*** mg | Uterine atrophy ([1]; autopsy at the end of Example 7): did not show uterine atrophy | Body weight gain ([2]; 0.02 mg/kg): body weight gain was inhibited

O=c1c(-c2ccc(O)cc2)coc2cc(O)cc(O)c12 [genistein]
Body weight gain ([2]; 100 mg/Kg): body weight gain was inhibited

secoisolariciresinol diglycoside [composition 4]
Inhibition of triglyceride increase vs group I [3]: significant inhibitory effect | Blood triglyceride ([3]; plasma, *p<0.05, ** vs. group I): 32.0 ± 3.2* mg/dl | Femoral dry weight (per 100 g body weight) ([4]; ovariectomized Wistar female rats, basic diet supplemented with 0.1% of sample): 90.9 ± 2.7 mg | Inhibition of bone mass decline vs group I (ovariectomized control) ([4]; ovariectomized rats, 0.1% in diet): tendency of inhibiting bone mass decline | Uterine weight ([1]; 0.1% in diet, 4 weeks): 105.5 ± 6.8 mg | Body weight gain ([2]; 50 mg/Kg): body weight gain was inhibited | Rise in the temperature at the tail skin [5]: the rise was inhibited
